The test system of this test is HeLa cell nuclear extract proteins. Put plainly: ADP-ribosylation of HeLa cell nuclear extract proteins by asPARPs 1, 2 or 3. Particulars: purified recombinant asPARPs 1, 2, or 3; 250 μM analog, 15 min. The format is biochemical, human. How it is done: HeLa cell nuclear extract preparation. HeLa Nuclear Extract was prepared essentially as described in Dignam et al., 1983. 5 L of HeLa S3 cells were grown in Spinner flasks to a density of 0.5×10^6 cells per milliliter and harvested by centrifugation at 4° C. for 10 minutes at 2000 RPM. Cell pellets were washed in 5 pelleted cell volumes of ice cold PBS and centrifuged 10 minutes at 2000 RPM. Cells were resuspended in 5 pelleted cell volumes of Buffer A (10 mM HEPES, pH 7.9, 1.5 mM MgCl2, 10 mM KCl, 0.5 mM DTT, 1 mM PMSF, 4 mM Benzamidine, 1 μM Aprotinin, 100 μM Leupeptin, 1 μM Pepstatin A) and incubated 10 minutes on ice to facilitate cell swelling and centrifuged at 4° C. for 10 minutes at 2000 RPM. Cells were resuspended in 2 pelleted cell volumes of Buffer A and dounced with a light pestle dounce homogenizer (Wheaton) to release nuclei. The nuclei were then pelleted by centrifugation at 4° C. for 10 minutes at 2000 RPM and the supernatant decanted. The nuclei were subsequently centrifuged at 4° C. for 20 minutes at 25,000 RCF to obtain a crude nuclear fraction. […]

`C#CCCSc1nc2c(N)ncnc2n1[C@@H]1O[C@H](COP(=O)(O)OP(=O)(O)OC[C@H]2O[C@@H]([n+]3cccc(C(N)=O)c3)C(O)C2O)[C@H](O)C1O` (stereo partly shown) [8-Bu(3-yne)T-NAD^+]: the “labeling of HeLa cell nuclear extract proteins” value was “PARP-specific labeling of extract proteins”.

Values taken from patent publication US9926340B2, “NAD analogs and methods of using said NAD analogs in determining ribosylation of proteins with PARP mutants” (The Board of Regents of the University of Texas System, priority 2015, dated 2018).
